Measurements from patent publication US11266170B2, “Sweetener and flavor compositions, methods of making and methods of use thereof” (EPC Natural Products Co., Ltd., priority 2018, dated 2022).

Assays:
[1] = Sensory evaluation of GSGs and SGs, thaumatin, NHDC and combinations in water (Example 255); details: combinations of EPCalin and NHDC in water, concentrations as in the sample name
Procedure: 4.5 ppm Thaumatin (equivalent to 10 ppm EPCalin) was dissolved in water. Increasing amounts of NHDC (1-5 ppm) were added to the solution and the sensory properties were evaluated.
50 ppm (GSGs and SGs) were dissolved in water. Increasing amounts of NHDC (1-5 ppm) were added to the solution and the sensory properties were evaluated.
50 ppm (GSGs and SGs) and 4.5 ppm Thaumatin (equivalent to 10 ppm EPCalin) were dissolved in water. Increasing amounts of NHDC (1-5 ppm) were added to the solution and the sensory properties were evaluated.

[2] = Assay to test reducing power (iron-III reduction), Example 64; assay type: biochemical; details: 100° C., 0-5.0 h, pH 7.8; compared with glucose or xylose
[3] = Assay to test DPPH radical-scavenging activity, Example 65; assay type: biochemical; details: 100° C., 0-5.0 h, pH 7.8; compared with glucose or xylose
Procedure: 1 mg 1,1-Diphenyl-2-picrylhydrazyl radical (DPPH)/ml ethanol, dilution to assay concentration were prepared in ethanol (40 μg/mL); Calibration samples were prepared with Ascorbic acid in a concentration of 0-10 μg/mL; as a negative control sample, water was used.
Samples in aqueous solution were used as such or diluted with water.
A 0.1 ml sample (or calibration standard) was mixed with 3.9 ml solution of DPPH (100 μMolar) and reacted while protected from light at room temperature for 30 min. Absorbance was determined at 517 nm against ethanol.
10 mM of amino acid and/or 10 mM sugar were dissolved in 10 ml 0.1 mM KH2PO4-buffer, pH=7.8.
The samples were kept at 100° C. in sealed glass vials (Pyrex 15 ml with screw caps) for 0 (before reaction), 2.5 or 5.0 hours. Thereafter the samples were transferred to an ice water bath and cooled down to room temperature. These samples were diluted 1:10 and used for the test assay for anti-oxidant potential.

[4] = Kinetics of reaction of Phe with Reb-A, Gluc, Xyl, Suc in dependence of pH-conditions, HPLC/MS (Example 55); assay type: physicochemical; details: reaction of Phe and Reb-A
Procedure: Quantitative evaluation was performed using external standardization.
Kinetics of Reaction in dependence of pH-conditions

SMILES	Sensory evaluation [1]	active iron-III reduction (anti-oxidant properties) [2]	radical scavenging properties (anti-oxidant properties) [3]	% degradation ([4]; pH = 5.5)	% degradation ([4]; pH = 7.0)	% degradation ([4]; pH = 8.5)
COc1ccc(CCC(=O)c2c(O)cc(O[C@@H]3O[C@H](CO)[C@@H](O)[C@H](O)[C@H]3O[C@@H]3O[C@@H](C)[C@H](O)[C@@H](O)[C@H]3O)cc2O)cc1O [10 ppm NHDC]	Sweet, steep onset of sweetness, no lingering					
C=C1C[C@@]23CC[C@H]4[C@@](C)(CCC[C@@]4(C)C(=O)O[C@@H]4O[C@H](CO)[C@@H](O)[C@H](O)[C@H]4O)[C@@H]2CC[C@]1(O[C@@H]1O[C@H](CO)[C@@H](O)[C@H](O[C@@H]2O[C@H](CO)[C@@H](O)[C@H](O)[C@H]2O)[C@H]1O[C@@H]1O[C@H](CO)[C@@H](O)[C@H](O)[C@H]1O)C3 [Reb-A, Rebaudioside A, reference compound]		substantial anti-oxidant properties	substantial anti-oxidant properties	8.25%	10.1%	12.6%
